The test system of this assay is BDF1 mice, B16 melanoma ip, median survival T/C. Put plainly: NCI In Vivo Anticancer Drug Screen. Data for tumor model B16 Melanoma (intraperitoneal) in B6D2F1 (BDF1) mice. Conditions: endpoint: median survival time, higher = longer survival. The essentials:
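In this screen, activity was judged from survival or tumor size in treated versus vehicle-treated tumor-bearing mice, reported as T/C.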

Setting [1] is: dose: 1.0 mg/kg/injection, schedule: Q01DX009 (ip), vehicle: saline.
The mark [2] stands for this setting: dose: 50.0 mg/kg/injection, schedule: Q01DX009 (ip), vehicle: Klucel (hydroxypropylcellulose) (HPC).
[3] abbreviates: dose: 100.0 mg/kg/injection, schedule: Q01DX009 (ip), vehicle: Klucel (hydroxypropylcellulose) (HPC).

In PubChem BioAssay AID192 (DTP/NCI, 2004) one finds T/C data, which are given here for ten molecules.

Values joined by “and” are separate entries in the source; they are usually repeats but may differ in a detail not shown here. Equal values may be shown once. Inconclusive results and toxic doses are left out.

On to `CO[C@H](C(=O)[C@@H](O)[C@@H](C)O)[C@@H]1Cc2cc3cc(OC4CC(OC5CC(O)C(O)C(C)O5)C(O)C(C)O4)c(C)c(O)c3c(O)c2C(=O)[C@H]1OC1CC(OC2CC(OC3CC(C)(O)C(O)C(C)O3)C(O)C(C)O2)C(O)C(C)O1` (stereo partly specified), for which the T/C was 103 % of control (dose: 0.02 mg/kg/injection, schedule: Q01DX009 (ip), vehicle: water); 106 % of control (dose: 0.05 mg/kg/injection, schedule: Q01DX009 (ip), vehicle: water); 101 % of control (dose: 0.06 mg/kg/injection, schedule: Q01DX009 (ip), vehicle: saline); 100 % of control and 103 % of control (dose: 0.1 mg/kg/injection, schedule: Q01DX009 (ip), vehicle: water); 101 % of control (dose: 0.12 mg/kg/injection, schedule: Q01DX009 (ip), vehicle: saline); 96 % of control (dose: 0.12 mg/kg/injection, schedule: Q01DX009 (ip), vehicle: water). The T/C by setting is: (dose: 0.13 mg/kg/injection, schedule: Q01DX009 (ip), vehicle: clinical formulation) 100 % of control; (dose: 0.13 mg/kg/injection, schedule: Q01DX009 (ip), vehicle: saline) 100 % of control and 109 % of control; (dose: 0.13 mg/kg/injection, schedule: Q01DX009 (ip), vehicle: water) 94 % of control; (dose: 0.2 mg/kg/injection, schedule: Q01DX009 (ip), vehicle: water) 111 % of control; (dose: 0.25 mg/kg/injection, schedule: Q01DX009 (ip), vehicle: clinical formulation) 102 % of control; (dose: 0.25 mg/kg/injection, schedule: Q01DX009 (ip), vehicle: saline) 100 % of control and 104 % of control and 111 % of control. Also, the T/C was 98 % of control (dose: 0.25 mg/kg/injection, schedule: Q01DX009 (ip), vehicle: water); 111 % of control (dose: 0.4 mg/kg/injection, schedule: Q01DX009 (ip), vehicle: water); 100 % of control (dose: 0.5 mg/kg/injection, schedule: Q01DX009 (ip), vehicle: clinical formulation); 97 % of control and 105 % of control and 121 % of control (dose: 0.5 mg/kg/injection, schedule: Q01DX009 (ip), vehicle: saline); 98 % of control (dose: 0.5 mg/kg/injection, schedule: Q01DX009 (ip), vehicle: water); 102 % of control (dose: 0.6 mg/kg/injection, schedule: Q01DX009 (ip), vehicle: water). Moreover, the T/C was 104 % of control (dose: 0.75 mg/kg/injection, schedule: Q01DX009 (ip), vehicle: saline); 105 % of control (dose: 1.0 mg/kg/injection, schedule: Q01DX009 (ip), vehicle: clinical formulation); 97 % of control and 106 % of control and 109 % of control under setting [1]; 98 % of control (dose: 62.0 micrograms/kg/injection, schedule: Q01DX009 (ip), vehicle: saline); 105 % of control (dose: 125.0 micrograms/kg/injection, schedule: Q01DX009 (ip), vehicle: saline); 94 % of control (dose: 125.0 micrograms/kg/injection, schedule: Q01DX009 (ip), vehicle: water). For the same molecule, the T/C by setting is: (dose: 250.0 micrograms/kg/injection, schedule: Q01DX009 (ip), vehicle: saline) 119 % of control; (dose: 500.0 micrograms/kg/injection, schedule: Q01DX009 (ip), vehicle: saline) 111 % of control; (dose: 500.0 micrograms/kg/injection, schedule: Q01DX009 (ip), vehicle: water) 110 % of control; (dose: 1000.0 micrograms/kg/injection, schedule: Q01DX009 (ip), vehicle: saline) 115 % of control; (dose: 1000.0 micrograms/kg/injection, schedule: Q01DX009 (ip), vehicle: water) 109 % of control.

Regarding `O=C1C(N2CC2)=C(N2CC2)C(=O)C(N2CC2)=C1N1CC1`, the T/C runs as follows: (dose: 10.0 micrograms/kg/injection, schedule: Q01DX009 (ip), vehicle: saline) 100 % of control and 118 % of control; (dose: 20.0 micrograms/kg/injection, schedule: Q01DX009 (ip), vehicle: saline) 120 % of control.

Regarding `Cc1ccc(S(=O)(=O)OC2CCN(C)CC2)cc1`, the T/C was 90 % of control (dose: 3.0 mg/kg/injection, schedule: Q04DX003 (ip), vehicle: Klucel (hydroxypropylcellulose) (HPC)); 86 % of control (dose: 6.0 mg/kg/injection, schedule: Q04DX003 (ip), vehicle: Klucel (hydroxypropylcellulose) (HPC)); 100 % of control (dose: 6.25 mg/kg/injection, schedule: Q01DX009 (ip), vehicle: saline); 94 % of control (dose: 6.25 mg/kg/injection, schedule: Q04DX003 (ip), vehicle: saline); 100 % of control (dose: 12.5 mg/kg/injection, schedule: Q01DX009 (ip), vehicle: saline); 97 % of control (dose: 12.5 mg/kg/injection, schedule: Q04DX003 (ip), vehicle: saline). Also, the T/C (dose: 25.0 mg/kg/injection, schedule: Q01DX009 (ip), vehicle: saline) is 100 % of control and the T/C (dose: 25.0 mg/kg/injection, schedule: Q04DX003 (ip), vehicle: saline) is 94 % of control.

Turning to `COc1cc2cc(c1Cl)N(C)C(=O)C[C@H](OC(=O)[C@H](C)N(C)C(C)=O)[C@]1(C)O[C@H]1[C@H](C)[C@@H]1C[C@@](O)(NC(=O)O1)[C@H](OC)C=C/C=C(\C)C2`, the T/C reads like this: (dose: 0.5 micrograms/kg/injection, schedule: Q01DX009 (ip), vehicle: saline) 110 % of control; (dose: 1.0 micrograms/kg/injection, schedule: Q01DX009 (ip), vehicle: saline + alcohol) 163 % of control; (dose: 2.0 micrograms/kg/injection, schedule: Q01DX009 (ip), vehicle: saline) 117 % of control; (dose: 2.0 micrograms/kg/injection, schedule: Q04DX003 (ip), vehicle: saline) 95 % of control; (dose: 4.0 micrograms/kg/injection, schedule: Q01DX009 (ip), vehicle: saline) 105 % of control; (dose: 4.0 micrograms/kg/injection, schedule: Q04DX003 (ip), vehicle: saline) 100 % of control. The T/C is 155 % of control (dose: 8.0 micrograms/kg/injection, schedule: Q01DX009 (ip), vehicle: saline); 97 % of control (dose: 8.0 micrograms/kg/injection, schedule: Q04DX003 (ip), vehicle: saline); 157 % of control (dose: 16.0 micrograms/kg/injection, schedule: Q01DX009 (ip), vehicle: saline); 108 % of control (dose: 16.0 micrograms/kg/injection, schedule: Q04DX003 (ip), vehicle: saline); 97 % of control (dose: 32.0 micrograms/kg/injection, schedule: Q01DX009 (ip), vehicle: saline); 100 % of control (dose: 32.0 micrograms/kg/injection, schedule: Q04DX003 (ip), vehicle: saline).

Turning to `CC(C(=O)O)C(=O)O.[NH-]CC[NH-].[Pt+2]`, the T/C runs as follows: (dose: 3.12 mg/kg/injection, schedule: Q01DX009 (ip), vehicle: water) 150 % of control; (dose: 6.25 mg/kg/injection, schedule: Q01DX009 (ip), vehicle: water) 162 % of control; (dose: 12.5 mg/kg/injection, schedule: Q01DX009 (ip), vehicle: water) 179 % of control; (dose: 25.0 mg/kg/injection, schedule: Q01DX009 (ip), vehicle: water) 211 % of control.

Regarding `COC(=O)c1cc(Cl)ccc1OCC(=O)Nc1ccc([N+](=O)[O-])cc1`, the T/C by setting is: under setting [2], 100 % of control; under setting [3], 100 % of control.

In the case of `O=C(O)C(=O)O.O=C([O-])C(=O)O.O=C([O-])C(=O)O.O=C([O-])C(=O)[O-].[K+].[U]`, the T/C was 98 % of control (dose: 0.5 mg/kg/injection, schedule: Q01DX009 (ip), vehicle: Klucel (hydroxypropylcellulose) (HPC)); 97 % of control (dose: 1.0 mg/kg/injection, schedule: Q01DX009 (ip), vehicle: Klucel (hydroxypropylcellulose) (HPC)); 100 % of control under setting [1]; 98 % of control (dose: 2.0 mg/kg/injection, schedule: Q01DX009 (ip), vehicle: saline).

As for `C[n+]1ccccc1/C=N/O`, the T/C runs as follows: (dose: 18.75 mg/kg/injection, schedule: Q01DX009 (ip), vehicle: saline) 100 % of control; (dose: 37.5 mg/kg/injection, schedule: Q01DX009 (ip), vehicle: saline) 107 % of control; (dose: 75.0 mg/kg/injection, schedule: Q01DX009 (ip), vehicle: saline) 88 % of control and 106 % of control.

As to `CCP(=S)(CC)P(=S)(CC)CC`, the T/C is 101 % of control under setting [2]; 112 % of control under setting [3]; 94 % of control (dose: 200.0 mg/kg/injection, schedule: Q01DX009 (ip), vehicle: Klucel (hydroxypropylcellulose) (HPC)).

For the molecule `ClCc1ccc(Oc2ccc(CCl)cc2)cc1`, the T/C by setting is: (dose: 6.25 mg/kg/injection, schedule: Q01DX009 (ip), vehicle: Klucel (hydroxypropylcellulose) (HPC)) 101 % of control; (dose: 12.5 mg/kg/injection, schedule: Q01DX009 (ip), vehicle: Klucel (hydroxypropylcellulose) (HPC)) 101 % of control and 115 % of control; (dose: 25.0 mg/kg/injection, schedule: Q01DX009 (ip), vehicle: Klucel (hydroxypropylcellulose) (HPC)) 105 % of control; under setting [2], 115 % of control and 124 % of control.
